Data from patent US20210293785A1, “METHODS FOR PREDICTING STEROID RESPONSIVENESS” (FLORIDA STATE UNIVERSITY RESEARCH FOUNDATION, INC., priority 2020, published 2021).

System: keloid fibroblasts
Experiment: Cell proliferation assay of patient-derived fibroblasts with or without steroid
Assay type: cell-based, human
Method: As depicted in the flow diagram of FIG. 3, in some embodiments, the method of the invention involves culturing small (˜2 mm) tissue pieces using standard cell culture media and conditions to allow the outgrowth of cells, which takes 1-2 weeks. Depending upon the desired cell type or cell types, non-invasive sampling methods can be utilized, such an oral rinse. The outgrown cells are collected by trypsinization and re-seeded in fresh wells. Upon attachment, the cells are treated in triplicate with or without 10 micromolar Triamcinolone Acetonide (TA), a potent synthetic steroid used widely in the clinic, or varying concentrations of any other test steroid. The viable cells are harvested 4-7 days post-treatment (when the untreated cells start approaching confluency) and counted to determine the effects of the steroid on cell proliferation. The inventors have tested the method of the invention using fibroblast cells derived from 3 normal human skin biopsies as well as 20 surgically excised keloids from patients and exposing them to TA, as well as hydrocortisone, another commonly used steroid in the clinic. The results were remarkably similar to those observed for the response of keloid patients to steroids in the clinic, with 52% of the samples being sensitive (responsive) to the TA treatment, while 39% were non-responsive and 9% were hyperproliferative in TA (which predicts a worsening of condition upon steroid therapy). In summary, our screening test described herein can be used to determine patients' responses to steroids in less than 4 weeks, following which responsive patients can undergo steroid therapy, while others can avoid the potentially harmful steroids altogether and seek other therapies. Culture of keloid derived primary fibroblast cells. Surgically excised keloid and normal skin explants were obtained from patients under Florida State University IRB (2016.19175 and 2017.22173). The explants were cut into small pieces, digested with trypsin, washed with and cultured in DMEM containing 10% fetal bovine serum and Antibiotic/Antimycotic solution maintained at 37° C. and 5% CO2. Outgrowth of only primary dermal fibroblasts occurred under our culture conditions and these were recovered by trypsinization for use in experiments at low passage. The keloid fibroblasts are morphologically identical to commercially obtained normal primary Human Dermal Fibroblasts (HDF) (Cell Applications, Cat.#106-05a) used in our controls. Cell proliferation assays. To determine relative cell survival following radiation or steroid treatments, 7,500 fibroblasts were seeded per well in triplicate in 12-well plates. Following attachment, the cells were treated with steroids or irradiated using a X-Rad 320 irradiator. Surviving fibroblasts were counted on a Coulter counter 7 days post-treatment.

[1] = fibroblasts from 3 normal human skin biopsies and 20 surgically excised keloids, 10 micromolar TA, cells counted 4-7 days post-treatment
[2] = keloid explants and fibroblasts, 10 μM TA for a week

With `CC1(C)O[C@@H]2C[C@H]3[C@@H]4CCC5=CC(=O)C=C[C@]5(C)[C@@]4(F)[C@@H](O)C[C@]3(C)[C@]2(C(=O)CO)O1` [TA, Triamcinolone Acetonide] the “samples hyperproliferative in TA” value [1] was 9%, the “samples non-responsive to TA” value [1] was 39% and the “samples sensitive (responsive) to the TA treatment” value [1] was 52%. The samples with hyperproliferation [2] was 10%, the “samples with modest reduction in proliferation (steroid sensitive)” value [2] was 50% and the “samples with no significant effects on proliferation (steroid insensitive)” value [2] was 40%.
